Results from patent US20250057958A1, “CYTOTOXICITY TARGETING CHIMERAS FOR CCR2-EXPRESSING CELLS” (GLAXOSMITHKLINE INTELLECTUAL PROPERTY DEVELOPMENT LIMITED, priority 2022, published 2025).
pIC50: −log10 of the molar value.

Key:
[1] = Blood drug concentration analysis (PK) in the in vivo depletion assay; design: species or system human CCR2 (hCCR2) knock-in mice; conditions: human CCR2 (hCCR2) knock-in, C57 background, mouse, whole blood, LC-MS/MS, IV bolus 0.1 mpk compound + 10 mpk anti-cotinine antibody, 48 hours post-dose, read-out: Exposure of Compound of Formula (I) 48 hours post-dose
Method: (§1) Human CCR2 (hCCR2) knock-in mice (C57 background) were dosed intravenously with a PBS solution containing a compound of Formula (I) to measure depletion of CCR2 expressing cells in peripheral blood. Peripheral blood from IV dosed mice was also analyzed to determine PK properties of the compounds of Formula (I).
(§2) Administration to Animal: Solution formulation of antibody and compound of Formula (I) was injected (bolus injection) to the restrained mouse in the right/left lateral tail vein. Animals were dosed with 0.1 milligram per kilogram (mpk) of the compound of Formula (I) and 10 mpk of the anti-cotinine antibody.
Collection of Blood for PK: Blood was collected at time points 0.25 hour, 2 hours, and […] following administration (50 μL/time point) through retro-orbital bleeding under mild isoflurane anesthesia.
(§3) Terminal bleeding at end of experiment (48 hr): Approximately 250 μL of blood in K2EDTA tube and approximately 250 μL of blood in SST (serum separation tube) was collected from each mouse through retro-orbital bleeding under deep isoflurane anesthesia. After bleeding, each mouse was sacrificed by cervical dislocation. The blood distribution at termination was determined as follows: • For PK: 50 μL of K2EDTA blood was transferred to another tube for PK • Flow cytometry: Remaining blood (˜200 μL) was used for flow cytometry analysis. • For serum collection: serum separator tubes (BD) were centrifuged at 4° C., 5000 rpm for 15 minutes. Approximately 100 μL serum was separated and stored at −80° C. for further usage. • Blood drug concentration: Samples collected at the various timepoints (0.25 hr, 2 hr, 24 and 48 hr) were analyzed to determine blood drug concentration.
Blood drug concentration analysis: Drug concentration in blood samples was determined by an LC-MS/MS-based bioanalytical method developed at Syngene. Samples were analyzed on Q-Trap, API-5500 LC-MS/MS system coupled with Exion UHPLC system from SCIEX, USA operated in multiple reaction monitoring mode employing electrospray ionization technique in positive polarity. Analyte and internal standard peaks were resolved on Synergi Polar, 75×2.0 mm, 4 μcolumn using mobile phase 10 mM Ammonium acetate in Milli-Q water as phase A and 0.1% Formic acid in acetonitrile as Phase B. Gradient elution was performed with initial composition 95% Phase A at 0.0 min, holding it for 0.2 minutes, ramping to 5% by 1.0 minute, keeping the same for next 0.5 minutes and coming back to 95% by 1.6 minutes. The total run time was 2 minutes.
Working dilutions for calibration curve and quality control standards were prepared by serially diluting 20 mg/mL stock solution with DMSO. Spiked concentrations for calibration curve in the whole blood ranged from 1 ng/mL to 1000 ng/mL. […]

[2] = tested on: CCR2 expressing cells (CD11b+Ly6c+Hi monocytes); assay: In vivo depletion assay (flow cytometry of peripheral blood); design: species or system human CCR2 (hCCR2) knock-in mice; conditions: IV bolus 0.1 mpk compound + 10 mpk anti-cotinine antibody (mouse IgG2a Fc), 48 hours
Method: as §1
Formulations preparation: On the day of experiment, the stock solution of the compound of Formula (I) was removed from storage at −20° C. and thawed at room temperature. Anti-cotinine antibody having a heavy chain sequence of SEQ ID NO: 13 and a light chain sequence of SEQ ID NO: 14 (rabbit variable region sequence with mouse IgG2a Fc domain), if required was removed from storage at −80° C. and thawed at room temperature. Antibody vials were immediately transferred into wet ice after thawing. Compounds of Formula (I) were further diluted in DMSO as per experimental requirements.
Formulation composition: The formulation composition was Saline: DMSO: PBS. Saline was added based on the quantity required and then stock solution of the compound of Formula (1) prepared in DMSO, followed by addition of antibody in PBS. Formulations were incubated at room temperature for 30 minutes before administration to the mouse. DMSO was used at 1 to 2% (v/v) in the final formulation.
as §2, §3
Flow cytometry analysis: CCR2 depletion in peripheral blood was determined by flow cytometry. Briefly, peripheral blood was collected from all animals at the end of study termination and processed. […]
Percent depletion of CD11b+Ly6c+Hi cells and CCR2 expression for the different treatment groups was determined. […]

[3] = target: T1, CHOK1 cells engineered to overexpress human CCR2 (Homo sapiens, UniProt P41597); assay: Antibody dependent cellular cytotoxicity (ADCC) reporter assay; assay type: cell-based; conditions: with anti-cotinine antibody (SEQ ID NO: 11/12, human IgG1 Fc S239D/I332E); Jurkat FcγRIIIa NFAT-luciferase reporter cells; 12-18 hours; average if more than one run; read-out: ADCC Reporter Assay pEC50 (converted)
T1 construct: expressed in transfected cells; host or cells: CHOK1 cells
Method: An antibody dependent cellular cytoxocity reporter assay was conducted using the following four assay components: (i) ARM compound of Formula (I) targeting CCR2 (concentrations ranging from 1 pM to 10 μM) (ii) anti-cotinine antibody having a heavy chain sequence of SEQ ID NO: 11 and a light chain sequence of SEQ ID NO: 12 (rabbit variable region with human IgG1 Fc domain containing a DE mutation (S239D/I332E)) (concentrations ranging from 0.01 μg/mL to 200 μg/mL); (iii) target cells: CHOK1 cells engineered to overexpress either human CCR2 (typically 1000-20,000 cells perwell) and (iv) reporter cells: Jurkat cells engineered to express FcγRIIIa with the reporter gene luciferase under the control of the NFAT promoter (typically 3000-75,000 cells per well). Reagents were combined in a final volume of 20 μL in a 384—well tissue culture treated plate. All four assay components were incubated together for about 12-18 hours. Thereafter, BioGlo Detection reagent (Promega) was added to the wells to lyse the cells and provide a substrate for the luciferase reporter protein. Luminescence signal was measured on a microplate reader and signal:background was calculated by dividing the signal of a test well by the signal obtained when no ARM compound of Formula (I) was added. EC50 calculations were done using Graphpad Prism Software, specifically a nonlinear regression curve fit (Y=Bottom+(Top−Bottom)/(1+10 ^((Log EC50−X)*HillSlope))).
ARMs compounds of Formula (I) of the invention were tested for ADCC activity in the above assay in or more experimental runs and the results are shown in Table 3 below. Potency of the compounds of Formula (I) of the invention is reported as a pEC50 value. The pEC50 value is the negative log of the EC50 value, wherein the EC50 value is the half maximal effective concentration measured in molar (M). For compounds tested in more than one experimental run, the pEC50 value is reported as an average.

[4] = target: human alpha1 nicotinic acetylcholine (nACh) receptor (Homo sapiens, UniProt P02708+Q07001); assay: Nicotinic acetylcholine receptor antagonism assay (IONFlux automated patch clamp); assay type: cell-based
Excerpt: Cells expressing human alpha1 nicotinic acetylcholine (nACh) receptor (nAChR) were washed and dissociated using Trypsin containing buffer. Cells were then washed and seeded at a density of 3-5 million cells/mL and allowed to grow for 3 days. […] The receptor was then stimulated via addition of acetylcholine (ACh) and activation of the receptor was monitored via the IONFlux automated patch clamp system. IonFlux Data Analyzer software was utilized to perform leak subtraction and measure (min) peak current amplitude.
Data processing: (1) Current values recorded for vehicle only applications in individual traps/patterns were subtracted from corresponding current amplitude values for control, test article and control+test article. (2) Control response was calculated as % of the average response of the 3rd out of total 3 ACh (10 mM) applications alone. In rare situations, if the 3rd ACh response was obscured due to technical artifacts, the 2nd and/or 1st ACh (10 mM) application was considered as control. The peak current amplitude generated in the presence of each test article concentration was then used to calculate the % inhibition as compared to control response (10 mM ACh alone). These estimates were further corrected for vehicle response and run down corrected by normalizing with time matched control responses (10 mM ACh alone). The corrected percentages were then fit with a non-linear function in GraphPad Prism 6 (or later versions) to determine the IC50.
Exclusion criteria: (i) any n's with poor recording quality, (ii) control current amplitude <500 pA or (iii) significant outliers, as determined by the Grubbs' test.
ARMs compounds of Formula (I) of the invention were tested for antagonism of the nAChR in the above assay in […] experimental runs and the results are shown in Table 5 below. Antagonistic activity of the compounds of Formula (I) of the invention is reported as an IC50 value (half maximal inhibitory concentration) and the maximum percentage antagonism observed at the highest concentration of compound of Formula (I) tested, as indicated in Table 5. For compounds tested in more than one experimental run, the IC50 value is reported as an average.

Sequence of human alpha1 nicotinic acetylcholine (nACh) receptor (P02708 21-457): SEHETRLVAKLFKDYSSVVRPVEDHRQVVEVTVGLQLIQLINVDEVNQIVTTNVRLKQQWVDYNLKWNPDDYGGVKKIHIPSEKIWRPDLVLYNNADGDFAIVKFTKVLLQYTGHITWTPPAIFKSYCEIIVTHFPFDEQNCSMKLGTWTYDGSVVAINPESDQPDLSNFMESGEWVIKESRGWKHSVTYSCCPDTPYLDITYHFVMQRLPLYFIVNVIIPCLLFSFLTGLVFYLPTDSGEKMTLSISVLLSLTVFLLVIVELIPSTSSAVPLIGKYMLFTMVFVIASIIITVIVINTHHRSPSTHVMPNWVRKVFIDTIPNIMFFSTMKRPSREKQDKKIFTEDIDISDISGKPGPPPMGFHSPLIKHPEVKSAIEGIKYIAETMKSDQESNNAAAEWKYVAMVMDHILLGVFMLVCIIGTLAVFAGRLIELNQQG
Sequence of human alpha1 nicotinic acetylcholine (nACh) receptor (P11230 24-501 partner): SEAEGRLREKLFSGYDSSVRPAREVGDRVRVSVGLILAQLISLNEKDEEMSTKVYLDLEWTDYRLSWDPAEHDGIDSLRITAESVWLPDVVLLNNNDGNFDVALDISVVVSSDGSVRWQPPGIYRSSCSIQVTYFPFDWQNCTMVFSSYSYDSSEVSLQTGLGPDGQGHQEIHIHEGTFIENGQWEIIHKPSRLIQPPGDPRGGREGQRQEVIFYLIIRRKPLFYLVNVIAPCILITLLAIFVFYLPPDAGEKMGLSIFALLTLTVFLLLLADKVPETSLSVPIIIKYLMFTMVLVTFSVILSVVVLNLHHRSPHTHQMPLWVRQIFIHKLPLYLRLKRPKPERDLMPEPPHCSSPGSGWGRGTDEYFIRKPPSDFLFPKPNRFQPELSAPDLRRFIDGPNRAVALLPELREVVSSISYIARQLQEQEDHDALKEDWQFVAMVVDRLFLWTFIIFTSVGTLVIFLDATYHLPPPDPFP
Sequence of human alpha1 nicotinic acetylcholine (nACh) receptor (Q07001 22-517): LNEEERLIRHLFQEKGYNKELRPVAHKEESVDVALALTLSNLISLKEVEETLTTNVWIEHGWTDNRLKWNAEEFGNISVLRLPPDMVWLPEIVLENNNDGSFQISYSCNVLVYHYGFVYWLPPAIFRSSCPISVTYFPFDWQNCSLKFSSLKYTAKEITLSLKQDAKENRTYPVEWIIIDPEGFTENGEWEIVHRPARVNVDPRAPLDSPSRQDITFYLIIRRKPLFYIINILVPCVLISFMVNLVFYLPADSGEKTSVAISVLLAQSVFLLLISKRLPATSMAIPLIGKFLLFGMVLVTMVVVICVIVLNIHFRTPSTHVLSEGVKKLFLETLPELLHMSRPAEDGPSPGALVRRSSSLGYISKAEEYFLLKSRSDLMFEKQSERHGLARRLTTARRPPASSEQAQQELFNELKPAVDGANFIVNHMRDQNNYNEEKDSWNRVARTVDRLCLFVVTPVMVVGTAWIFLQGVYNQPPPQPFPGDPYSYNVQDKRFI

Structure (SMILES) | concentration at 48 h [1] | % Depletion of CCR2 expressing cells [2] | EC50 [3] | Emax at 100 µM ([4]; maximum percentage antagonism at highest concentration tested, 100 μM, read-out: Maximum Response (%)) | pIC50 ([4]; nAChR antagonism, stimulated with ACh, average if more than one run)
CC(=O)N[C@@H]1C[C@H](NC(C)(C)C)CC[C@@H]1N1CC[C@H](Nc2nc(CCCNC(=O)[C@H]3CC[C@H](NC(=O)CCCO[C@H]4CC[C@H](OCCNC(=O)[C@H]5CC(=O)N(C)[C@@H]5c5cccnc5)CC4)CC3)nc3ccc(C(F)(F)F)cc23)C1=O [Example 1, (2S,3S)—N-(2-(((1R,4S)-4-(4-(((1S,4R)-4-((3-(4-(((S)-1-((1S,2R,4R)-2-Acetamido-4-(tert-butylamino)cyclohexyl)-2-oxopyrrolidin-3-yl)amino)-6-(trifluoromethyl)quinazolin-2-yl)propyl)carbamoyl)cyclohexyl)amino)-4-oxobutoxy)cyclohexyl)oxy)ethyl)-1-methyl-5-oxo-2-(pyridin-3-yl)pyrrolidine-3-carboxamide] | 42.9 ng/mL | 89.18% | 0.158 nM | – | –
CC(=O)N[C@@H]1C[C@H](NC(C)(C)C)CC[C@@H]1N1CC[C@H](Nc2nc(COCCNC(=O)[C@H]3CC[C@H](NC(=O)CCCO[C@H]4CC[C@H](OCCNC(=O)[C@H]5CC(=O)N(C)[C@@H]5c5cccnc5)CC4)CC3)nc3ccc(C(F)(F)F)cc23)C1=O [Example 14, (2S,3S)-N-(2-(((1R,4S)-4-(4-(((1S,4R)-4-((2-((4-(((S)-1-((1S,2R,4R)-2-acetamido-4-(tert-butylamino)cyclohexyl)-2-oxopyrrolidin-3-yl)amino)-6-(trifluoromethyl)quinazolin-2-yl)methoxy)ethyl)carbamoyl)cyclohexyl)amino)-4-oxobutoxy)cyclohexyl)oxy)ethyl)-1-methyl-5-oxo-2-(pyridin-3-yl)pyrrolidine-3-carboxamide] | – | – | 0.501 nM | 54% | < 4.00
